Results reported in patent publication US12134620B2 (ARAXES PHARMA LLC, priority 2018, dated 2024).

Target: T1, KRAS G12C 1-169, his-tagged protein, GDP-loaded (Homo sapiens, UniProt P01116, G12C)
T1 construct: KRAS G12C 1-169, his-tagged protein, GDP-loaded; His tag
Test: Biochemical assay: covalent modification of KRAS G12C, analysed by mass spectrometry (RapidFire/TOF or Q-Exactive)
Assay type: binding
Conditions: Modification activity, modification percentage from MS peak intensities
Experimental: Test compounds are prepared as 10 mM stock solutions in DMSO (Fisher cat. #BP-231-100). KRAS G12C 1-169, his-tagged protein, GDP-loaded is diluted to 2 μM or 0.5 μM in buffer (20 mM Hepes, 150 mM NaCl, 1 mM MgCl2). Compounds are tested for activity as follows:
Compounds are diluted to 50× final test concentration in DMSO in 96-well storage plates. Compound stock solutions are vortexed before use and observed carefully for any sign of precipitation. Dilutions are as follow: • For 32 μM final compound concentration, compounds are diluted to 1600 μM (3 μL 10 mM compound stock+15.75 μL DMSO and mixed well by pipetting. • For 8 μM final compound concentration, compounds are diluted to 400 μM (2 μL 10 mM compound stock+48 μL DMSO) and mixed well by pipetting. 49 μL of the stock protein solution is added to each well of a 96-well PCR plate (Fisher cat #1423027). 1 μl of the diluted 50× compounds are added to appropriate wells in the PCR plate using 12-channel pipettor. Reactions are mixed carefully and thoroughly by pipetting up/down with a 200 μL multi-channel pipettor. The plate is sealed well with aluminum plate seal, and protein and compound are allowed to react for a desired amount of time. 5 μL of 2% formic acid (Fisher cat #A117) in de-ionized H2O is then added to each well followed by mixing with a pipette to quench the reaction. The plate is then resealed with aluminum seal and stored frozen on dry ice until analyzed as described below.
The above described assays are analyzed by mass spectrometry according to one of the following two procedures:
The MS instrument is set to positive polarity, 2 GHz resolution, and low mass (1700) mode and allowed to equilibrate for 30 minutes. The instrument is then calibrated, switched to acquisition mode and the appropriate method loaded.
After another 30 minute equilibration time, a blank batch (i.e., buffer) is run to ensure equipment is operating properly. The samples are thawed at 37° C. for 10 minutes, briefly centrifuged, and transfer to the bench top. Wells A1 and H12 are spiked with 1 μL 500 μM internal standard peptide, and the plates centrifuged at 2000×g for 5 minutes. The method is then run and masses of each individual well recorded.
The masses (for which integration data is desired) for each well are pasted into the platemap and exported from the analysis. Masses for the internal standards are exported as well. The data at 50 ppm is extracted for the +19 charge state, and identity of well A1 is assigned using the internal standard spike and integrated. Peak data is exported as a TOF list and the above steps are repeated individually, for the +20, +21, +22, +23, +24, and +25 charge states.
The masses and peak intensities of KRAS G12C protein species are measured using a Dionex RSLCnano system (Thermo Scientific) connected to a Q Exactive Plus mass spectrometer (Thermo Scientific).
20 μL of sample is each loaded onto a Aeris™ 3.6 μm WIDEPORE C4 200 Å, LC Column 50×2.1 mm column maintained at 40° C. at a flow rate of 600 μL/min with 80% Solvent A (0.1% formic acid in H2O) and 20% Solvent B (0.1% formic acid in acetonitrile). The liquid chromatography conditions are 20% solvent B for 1 minute, 20% to 60% solvent B for 1.5 minutes, 60% to 90% solvent for 0.5 minute, 90% solvent B for 0.2 minute, 90% to 20% solvent B for 0.2 minute, and then equilibrated for 1.6 minute before the following sample injection. The flow rate is maintained at 600 μL/min throughout the sample analysis.
The mass spectrometer is operated in profile mode at a resolution of 17500, 5 microscans, using 50 msec max injection time and an AGC target of 1×10^6, and a full mass range from 800-1850 m/z is recorded. The intact protein mode is applied for optimal ion transfer and maximum sensitivity. The ionization method is electrospray ionization, which used a spray voltage of 4 kV, sheath gas flow set to 50 AU, auxiliary gas flow set to 10 AU and sweep gas flow set to 1 AU. […]

| SMILES | Binding % |
| --- | --- |
| C=CC(=O)N1CC2(CCN(c3nc(OC[C@@H]4CCCN4C)nc(-n4ccnc4)c3C#N)C2)C1 [Compound I-31, (S)-4-(2-acryloyl-2,6-diazaspiro[3.4]octan-6-yl)-6-(1H-imidazol-1-yl)-2-((1-methylpyrrolidin-2-yl)methoxy)pyrimidine-5-carbonitrile] | + (+ indicates binding activity greater than 0% and up to 50%) |
| C=CC(=O)N1CC2(CCN(c3nc(N4CCC5(CCN(C)CC5)C4)nc(-c4c(C)ccc5[nH]ncc45)c3C#N)C2)C1 [Compound I-32, 4-(2-acryloyl-2,6-diazaspiro[3.4]octan-6-yl)-6-(5-methyl-1H-indazol-4-yl)-2-(8-methyl-2,8-diazaspiro[4.5]decan-2-yl)pyrimidine-5-carbonitrile] | ++ (++ indicates binding activity from 50 to 85%) |
| C=CC(=O)N1CC2(CCN(c3nc(N4CCOCC4)nc(-c4c(C)ccc5[nH]nc(N)c45)c3C#N)C2)C1 [Compound I-33, 4-(2-acryloyl-2,6-diazaspiro[3.4]octan-6-yl)-6-(3-amino-5-methyl-1H-indazol-4-yl)-2-morpholinopyrimidine-5-carbonitrile] | +++ (+++ indicates binding activity greater than 85%) |
| C=CC(=O)N1CC2(CCN(c3nc(N4CCCC4)nc(-c4c(C)ccc5[nH]nc(N)c45)c3C#N)C2)C1 [Compound I-34, 4-(2-acryloyl-2,6-diazaspiro[3.4]octan-6-yl)-6-(3-amino-5-methyl-1H-indazol-4-yl)-2-(pyrrolidin-1-yl)pyrimidine-5-carbonitrile] | +++ (+++ indicates binding activity greater than 85%) |
| C=CC(=O)N1CC2(CCN(c3nc(OC[C@@H]4CCCN4C)nc(-c4cnn(CCO)c4)c3C#N)C2)C1 [Compound I-35, (S)-4-(2-acryloyl-2,6-diazaspiro[3.4]octan-6-yl)-6-(1-(2-hydroxyethyl)-1H-pyrazol-4-yl)-2-((1-methylpyrrolidin-2-yl)methoxy)pyrimidine-5-carbonitrile] | + (+ indicates binding activity greater than 0% and up to 50%) |
| C=CC(=O)N1CC2(CCN(c3nc(OC[C@@H]4CCCN4C)nc(Nc4ccccc4C(N)=O)c3C#N)C2)C1 [Compound I-36, (S)-2-((6-(2-acryloyl-2,6-diazaspiro[3.4]octan-6-yl)-5-cyano-2-((1-methylpyrrolidin-2-yl)methoxy)pyrimidin-4-yl)amino)benzamide] | + (+ indicates binding activity greater than 0% and up to 50%) |
| C=CC(=O)N1CC2(CCN(c3nc(OC[C@@H]4CCN(C)C4)nc(-c4c(C)ccc5[nH]ncc45)c3C#N)C2)C1 [Compound I-37, 4-(2-acryloyl-2,6-diazaspiro[3.4]octan-6-yl)-6-(5-methyl-1H-indazol-4-yl)-2-(((R)-1-methylpyrrolidin-3-yl)methoxy)pyrimidine-5-carbonitrile] | + (+ indicates binding activity greater than 0% and up to 50%) |
| C=CC(=O)N1CC2(CCN(c3nc(OC[C@@H]4CCCN4C)nc(-n4cnc5ccccc54)c3C#N)C2)C1 [Compound I-38, (S)-4-(2-acryloyl-2,6-diazaspiro[3.4]octan-6-yl)-6-(1H-benzo[d]imidazol-1-yl)-2-((1-mehtylpyrrolidin-2-yl)methoxy)pyrimidine-5-carbonitrile] | + (+ indicates binding activity greater than 0% and up to 50%) |
| C=CC(=O)N1CC2(CCN(c3nc(N4CC5CN(C)CC5C4)nc(-c4c(C)ccc5[nH]ncc45)c3C#N)C2)C1 (stereo not drawn) [Compound I-39, 4-(2-acryloyl-2,6-diazaspiro[3.4]octan-6-yl)-6-(5-methyl-1H-indazol-4-yl)-2-(5-methylhexahydropyr-rolo[3,4-c]pyrrol-2(1H)-yl)pyrimidine-5-carbonitrile] | + (+ indicates binding activity greater than 0% and up to 50%) |
| C=CC(=O)N1CC2(CCN(c3nc(N4CCC5CCN(C)C5C4)nc(-c4c(C)ccc5[nH]ncc45)c3C#N)C2)C1 (stereo not drawn) [Compound I-40, 4-(2-acryloyl-2,6-diazaspiro[3.4]octan-6-yl)-6-(5-methyl-1H-indazol-4-yl)-2-(1-methyloctahydro-6H-pyrrolo[2,3-c]pyridin-6-yl)pyrimidine-5-carbonitrile] | +++ (+++ indicates binding activity greater than 85%) |
| C=CC(=O)N1CC2(CCN(c3nc(NC(=O)c4ccccn4)nc(-c4c(C)ccc5[nH]ncc45)c3C#N)C2)C1 [Compound I-41, N-(4-(2-acryloyl-2,6-diazaspiro[3.4]octan-6-yl)-5-cyano-6-(5-methyl-1H-indazol-4-yl)pyrimidin-2-yl)picolinamide] | +++ (+++ indicates binding activity greater than 85%) |
| C=CC(=O)N1CC2(CCN(c3nc(OC4CCN(C)CC4)nc(-c4c(C)ccc5[nH]ncc45)c3C#N)C2)C1 [Compound I-43, 4-(2-acryloyl-2,6-diazaspiro[3.4]octan-6-yl)-6-(5-methyl-1H-indazol-4-yl)-2-((1-methylpiperidin-4-yl)oxy)pyrimidine-5-carbonitrile] | +++ (+++ indicates binding activity greater than 85%) |
| C=CC(=O)N1CC2(CCN(c3nc(OC[C@@H]4CCCN4C)nc(Nc4cccc(C(N)=O)c4)c3C#N)C2)C1 [Compound I-44, (S)-3-((6-(2-acryloyl-2,6-diazaspiro[3.4]octan-6-yl)-5-cyano-2-((1-methylpyrrolidin-2-yl)methoxy)pyrimidin-4-yl)amino)benzamide] | + (+ indicates binding activity greater than 0% and up to 50%) |
| C=CC(=O)N1CC2(CCN(c3nc(OC[C@@H]4CCCN4C)nc(-c4c(F)cccc4C(N)=O)c3C#N)C2)C1 [Compound I-45, 2-(6-(2-acryloyl-2,6-diazaspiro[3.4]octan-6-yl)-5-cyano-2-(((S)-1-methylpyrrolidin-2-yl)methoxy)pyrimidin-4-yl)-3-fluorobenzamide] | + (+ indicates binding activity greater than 0% and up to 50%) |
| C=CC(=O)N1CC2(CCN(c3nc(N4CC5CCN(C)CC5C4)nc(-c4c(C)ccc5[nH]ncc45)c3C#N)C2)C1 (stereo not drawn) [Compound I-46, 4-(2-acryloyl-2,6-diazaspiro[3.4]octan-6-yl)-6-(5-methyl-1H-indazol-4-yl)-2-(5-methyloctahydro-2H-pyrrolo[3,4-c]pyridin-2-yl)pyrimidine-5-carbonitrile] | +++ (+++ indicates binding activity greater than 85%) |
| C=CC(=O)N1CC2(CCN(c3nc(N4CC5CCC(C4)N5C)nc(-c4c(C)ccc5[nH]ncc45)c3C#N)C2)C1 [Compound I-47, 4-(2-acryloyl-2,6-diazaspiro[3.4]octan-6-yl)-6-(5-methyl-1H-indazol-4-yl)-2-(8-methyl-3,8-diazabicyclo[3.2.1]oc-tan-3-yl)pyrimidine-5-carbonitrile] | +++ (+++ indicates binding activity greater than 85%) |
| C=CC(=O)N1CC2(CCN(c3nc(OCCc4ccccn4)nc(-c4c(C)ccc5[nH]ncc45)c3C#N)CC2)C1 [Compound I-75, 4-(2-acryloyl-2,7-diazaspiro[3.5]nonan-7-yl)-6-(5-methyl-1H-indazol-4-yl)-2-(2-(pyridin-2-yl)ethoxy)pyrimidine-5-carbonitrile] | ++ (++ indicates binding activity from 50 to 85%) |
| C=CC(=O)N1CC2(CCN(c3nc(N4CCOCC4)nc(-c4c(C)ccc5[nH]ncc45)c3C#N)C2)C1 [Compound I-76, 4-(2-acryloyl-2,6-diazaspiro[3.4]octan-6-yl)-6-(5-methyl-1H-indazol-4-yl)-2-morpholinopyrimidine-5-carbonitrile] | ++ (++ indicates binding activity from 50 to 85%) |
